Measured values: ChEMBL document CHEMBL1828583, “Discovery process and pharmacological characterization of a novel dual orexin 1 and orexin 2 receptor antagonist useful for treatment of sleep disorders” (Bioorg Med Chem Lett, 2011)
Calls of active or inactive are those of the source. The rule behind the calls is not given here.

How the values were obtained:
[1] = target: T1, Orexin/Hypocretin receptor type 1 (Homo sapiens, UniProt O43613); assay: Antagonist activity at recombinant human OX1R expressed in CHO cells by FLIPR calcium based functional assay; type: cell-based
T1 sequence (O43613 whole entry): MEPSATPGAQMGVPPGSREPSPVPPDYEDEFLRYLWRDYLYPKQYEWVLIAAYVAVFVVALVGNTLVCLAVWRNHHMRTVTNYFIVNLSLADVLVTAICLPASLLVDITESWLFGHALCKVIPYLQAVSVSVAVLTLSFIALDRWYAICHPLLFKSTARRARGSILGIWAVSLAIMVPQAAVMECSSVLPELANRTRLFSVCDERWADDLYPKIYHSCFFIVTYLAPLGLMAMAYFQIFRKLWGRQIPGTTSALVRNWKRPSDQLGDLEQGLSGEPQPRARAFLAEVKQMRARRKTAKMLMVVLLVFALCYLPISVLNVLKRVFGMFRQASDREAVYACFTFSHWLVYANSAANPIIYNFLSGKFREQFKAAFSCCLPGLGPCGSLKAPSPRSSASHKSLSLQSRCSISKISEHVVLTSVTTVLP

Orexin receptor type 2 [2] = target: T2, Orexin receptor type 2 (Homo sapiens, UniProt O43614); assay: Antagonist activity at recombinant human OX2R expressed in CHO cells by FLIPR calcium based functional assay; type: cell-based
T2 sequence (O43614 whole entry): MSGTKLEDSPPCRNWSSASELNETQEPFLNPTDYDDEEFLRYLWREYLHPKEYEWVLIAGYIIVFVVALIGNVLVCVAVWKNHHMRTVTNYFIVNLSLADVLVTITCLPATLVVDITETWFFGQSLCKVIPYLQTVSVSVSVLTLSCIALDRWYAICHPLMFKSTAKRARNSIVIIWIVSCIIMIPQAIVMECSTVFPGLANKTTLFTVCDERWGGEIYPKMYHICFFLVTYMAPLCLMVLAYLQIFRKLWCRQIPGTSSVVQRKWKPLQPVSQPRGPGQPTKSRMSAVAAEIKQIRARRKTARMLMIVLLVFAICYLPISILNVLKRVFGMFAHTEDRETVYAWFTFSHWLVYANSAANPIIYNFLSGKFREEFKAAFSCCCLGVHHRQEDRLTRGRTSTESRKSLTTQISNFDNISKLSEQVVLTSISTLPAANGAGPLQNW

Liver microsomes = assay: Intrinsic clearance in human liver microsomes; type: ADME, Microsome
[3] = target: T3, Orexin/Hypocretin receptor type 1 (Homo sapiens) (UniProt O43613); assay: Agonist activity at recombinant human OX1R expressed in CHO cells at 1 uM; type: functional, cell-based
T3 sequence (whole entry): T1 sequence (O43613 whole entry)

Rattus norvegicus [4] = assay: Hypnotic activity in CD rat Circadian time model assessed as non-rapid eye movement latency period at 3 mg/kg, po administered during active phase measured from starting time CT18 (reference value: 46.1 +/- 10.0 mins); type: functional
[5] = target: T4, Orexin/Hypocretin receptor type 1 (Rattus norvegicus, UniProt P56718); assay: Antagonist activity at recombinant rat OX1R expressed in CHO cells by FLIPR calcium based functional assay; type: cell-based
T4 sequence (P56718 whole entry): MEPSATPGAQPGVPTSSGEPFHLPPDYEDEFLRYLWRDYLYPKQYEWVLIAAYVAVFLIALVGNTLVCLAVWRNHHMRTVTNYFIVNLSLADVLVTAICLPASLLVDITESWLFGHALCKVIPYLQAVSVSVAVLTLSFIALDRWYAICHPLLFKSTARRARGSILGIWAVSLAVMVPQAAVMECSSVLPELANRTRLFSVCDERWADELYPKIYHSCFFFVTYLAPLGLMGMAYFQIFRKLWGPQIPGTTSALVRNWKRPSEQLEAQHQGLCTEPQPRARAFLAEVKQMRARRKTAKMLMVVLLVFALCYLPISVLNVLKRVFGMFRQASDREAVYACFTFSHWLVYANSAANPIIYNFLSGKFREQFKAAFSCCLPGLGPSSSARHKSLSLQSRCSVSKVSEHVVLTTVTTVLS

[6] = target: T5, Orexin/Hypocretin receptor type 1 (Rattus norvegicus) (UniProt P56718); assay: Agonist activity at recombinant rat OX1R expressed in CHO cells at 1 uM; type: functional, cell-based
T5 sequence (whole entry): T4 sequence (P56718 whole entry)

[7] = Half life in CD rat at 1 mg/kg, iv and 3 mg/kg, po; type: ADME, organism-based; conditions: in vivo
Rattus norvegicus [8] = assay: Hypnotic activity in CD rat Circadian time model assessed as rapid eye movement sleep at 3 mg/kg, po administered during active phase measured from starting time CT18 (reference value: 3.22 +/- 0.73 mins); type: functional
Rattus norvegicus [9] = assay: Hypnotic activity in CD rat Circadian time model assessed as awake period at 30 mg/kg, po administered during active phase measured from starting time CT18 (reference value: 218 +/- 11.32 mins); type: functional
Orexin receptor type 2 [10] = target: T6, Orexin receptor type 2 (Rattus norvegicus, UniProt P56719); assay: Antagonist activity at recombinant rat OX2R expressed in CHO cells by FLIPR calcium based functional assay; type: cell-based
T6 sequence (P56719 whole entry): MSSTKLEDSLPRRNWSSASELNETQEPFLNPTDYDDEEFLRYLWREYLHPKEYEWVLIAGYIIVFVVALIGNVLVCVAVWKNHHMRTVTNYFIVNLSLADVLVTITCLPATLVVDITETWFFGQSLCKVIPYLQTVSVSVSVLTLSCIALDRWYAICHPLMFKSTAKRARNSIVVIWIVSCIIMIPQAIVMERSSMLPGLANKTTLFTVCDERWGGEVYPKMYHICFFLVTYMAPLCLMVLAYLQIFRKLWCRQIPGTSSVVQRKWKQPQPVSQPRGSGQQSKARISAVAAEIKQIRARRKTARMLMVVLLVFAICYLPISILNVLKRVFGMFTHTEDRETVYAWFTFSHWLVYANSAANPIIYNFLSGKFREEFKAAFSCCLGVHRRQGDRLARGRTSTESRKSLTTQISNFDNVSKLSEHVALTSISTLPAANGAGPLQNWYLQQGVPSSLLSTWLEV

[11] = Fraction unbound in CD rat plasma at 1 mg/kg, iv after 1 hrs; type: ADME, organism-based; design: dose 1 mg/kg, route intravenous
[12] = Ratio of drug level in brain to blood in CD rat at 1 mg/kg, iv after 1 hrs; type: ADME, organism-based; design: dose 1 mg/kg, route intravenous; conditions: read-out: BBR
Rattus norvegicus [13] = assay: Hypnotic activity in CD rat Circadian time model assessed as awake period at 3 mg/kg, po administered during active phase measured from starting time CT18 (reference value: 218 +/- 11.32 mins); type: functional
Rattus norvegicus [14] = assay: Hypnotic activity in CD rat Circadian time model assessed as rapid eye movement latency period at 30 mg/kg, po administered during active phase measured from starting time CT18 (reference value: 146.3 +/- 54.2 mins); type: functional
[15] = Oral bioavailability in CD rat at 3 mg/kg; type: ADME, organism-based; conditions: in vivo
[16] = Cmax in CD rat at 1 mg/kg, iv and 3 mg/kg, po; type: ADME, organism-based; conditions: in vivo
Rattus norvegicus [17] = assay: Hypnotic activity in CD rat Circadian time model assessed as rapid eye movement latency period at 10 mg/kg, po administered during active phase measured from starting time CT18 (reference value: 146.3 +/- 54.2 mins); type: functional
[18] = Fraction unbound in CD rat brain at 1 mg/kg, iv after 1 hrs; type: ADME, organism-based; design: dose 1 mg/kg, route intravenous
Rattus norvegicus [19] = assay: Hypnotic activity in po dosed CD rat Circadian time model assessed as non-rapid eye movement sleep administered during active phase measured from starting time CT18; type: functional, organism-based
Rattus norvegicus [20] = assay: Hypnotic activity in CD rat Circadian time model assessed as rapid eye movement sleep at 30 mg/kg, po administered during active phase measured from starting time CT18 (reference value: 3.22 +/- 0.73 mins); type: functional
Rattus norvegicus [21] = assay: Hypnotic activity in CD rat Circadian time model assessed as total sleep time at 10 mg/kg, po administered during active phase (reference value: 81 +/- 11 mins); type: functional
Orexin receptor type 2 [22] = target: T2, Orexin receptor type 2; assay: Displacement of [3H]almorexant from recombinant human OX2R expressed in CHO cells; type: cell-based
Rattus norvegicus [23] = assay: Hypnotic activity in CD rat Circadian time model assessed as rapid eye movement sleep at 10 mg/kg, po administered during active phase measured from starting time CT18 (reference value: 3.22 +/- 0.73 mins); type: functional
[24] = target: T1, Orexin/Hypocretin receptor type 1; assay: Displacement of [3H]almorexant from recombinant human OX1R expressed in CHO cells; type: cell-based
Rattus norvegicus [25] = assay: Hypnotic activity in CD rat Circadian time model assessed as non-rapid eye movement latency period at 30 mg/kg, po administered during active phase measured from starting time CT18 (reference value: 46.1 +/- 10.0 mins); type: functional
Rattus norvegicus [26] = assay: Hypnotic activity in CD rat Circadian time model assessed as non-rapid eye movement sleep at 3 mg/kg, po administered during active phase measured from starting time CT18 (reference value: 78.1 +/- 11.3 mins); type: functional
Rattus norvegicus [27] = assay: Hypnotic activity in CD rat Circadian time model assessed as awake period at 10 mg/kg, po administered during active phase measured from starting time CT18 (reference value: 218 +/- 11.32 mins); type: functional
Rattus norvegicus [28] = assay: Hypnotic activity in po dosed CD rat Circadian time model assessed as non-rapid eye movement latency period during active phase measured from starting time CT18; type: functional, organism-based
[29] = Volume of distribution at steady state in CD rat at 1 mg/kg, iv and 3 mg/kg, po; type: ADME, organism-based; conditions: in vivo, read-out: Vdss
Rattus norvegicus [30] = assay: Hypnotic activity in po dosed CD rat Circadian time model assessed as total sleep time measured during active phase after 5 hrs; type: functional, organism-based
Rattus norvegicus [31] = assay: Hypnotic activity in CD rat Circadian time model assessed as non-rapid eye movement sleep at 10 mg/kg, po administered during active phase measured from starting time CT18 (reference value: 78.1 +/- 11.3 mins); type: functional
Rattus norvegicus [32] = assay: Hypnotic activity in po dosed CD rat Circadian time model assessed as rapid eye movement sleep administered during active phase measured from starting time CT18; type: functional, organism-based
Rattus norvegicus [33] = assay: Hypnotic activity in CD rat Circadian time model assessed as non-rapid eye movement latency period at 10 mg/kg, po administered during active phase measured from starting time CT18 (reference value: 46.1 +/- 10.0 mins); type: functional
Rattus norvegicus [34] = assay: Hypnotic activity in CD rat Circadian time model assessed as non-rapid eye movement sleep at 30 mg/kg, po administered during active phase measured from starting time CT18 (reference value: 78.1 +/- 11.3 mins); type: functional
[35] = Plasma clearance in CD rat at 1 mg/kg, iv and 3 mg/kg, po; type: ADME, organism-based
Rattus norvegicus [36] = assay: Neurotoxicity in CD rat assessed as impairment of motor coordination at 1 to 10 mg/kg, po by rotarod test; type: toxicity, organism-based; design: dose 1-10 mg/kg, route oral; conditions: in vivo
Rattus norvegicus [37] = assay: Neurotoxicity in CD rat assessed as impairment of motor coordination at 1 to 10 mg/kg, po by rotarod test in presence of 1 g/kg, ip ethanol; type: toxicity, organism-based; design: dose 1-10 mg/kg, route oral; conditions: in vivo
Rattus norvegicus [38] = assay: In vivo antagonist activity at OX1R in CD rat assessed as reduction of OX-A induced grooming dosed orally 3 hrs before OX-A injection measured after 1 hrs; type: functional, organism-based
Rattus norvegicus [39] = assay: Hypnotic activity in CD rat Circadian time model assessed as rapid eye movement latency period at 3 mg/kg, po administered during active phase measured from starting time CT18 (reference value: 146.3 +/- 54.2 mins); type: functional

O=C(CC[C@@H]1CCCCN1C(=O)c1ccccc1-c1ccccc1)c1ccccc1
Ki [1]: 10 nM
Ki (Orexin receptor type 2 [2]): 20 nM

O=C(NC[C@@H]1CCCCN1C(=O)c1ccccc1-c1ccccc1)Nc1ccccc1
Ki [1]: 1 nM
Ki (Orexin receptor type 2 [2]): 5.01 nM

COc1cccc(C(=O)N2CCCCC2CCOc2ccc(Cl)c(Cl)c2)c1 (racemic)
Ki [1]: 126 nM
Ki (Orexin receptor type 2 [2]): 501 nM

N#Cc1cccc(C(=O)N2CCCCC2CCOc2ccc(Cl)c(Cl)c2)c1 (racemic)
Ki [1]: 398 nM
Ki (Orexin receptor type 2 [2]): 631 nM

O=C(c1ccc(Cl)c(Cl)c1)N1CCCCC1CCOc1ccc(Cl)c(Cl)c1 (racemic)
Ki [1]: 2510 nM
Ki (Orexin receptor type 2 [2]): > 3160 nM

O=C(c1ccccc1-c1ccccc1)N1CCCCC1CCOc1ccc(F)cc1 (racemic)
Ki [1]: 5.01 nM
CL (Liver microsomes): > 50 mL/min/g
Ki (Orexin receptor type 2 [2]): 20 nM

Cc1nc(C(=O)N2CCCC[C@H]2CNC(=O)c2cccc3occc23)c(-c2ccc(F)cc2)s1 [SB-649868]
Activity [3]: inactive
Time (Rattus norvegicus [4]): 19 min
Ki [5]: 0.117 nM
Activity [6]: inactive
half-life [7]: < 36 min
Time (Rattus norvegicus [8]): 6.5 min
Time (Rattus norvegicus [9]): 87 min
Ki (Orexin receptor type 2 [10]): 0.0776 nM
fraction unbound at 1 h [11]: 0.0134
Kp at 1 h [12]: 0.1
CL (Liver microsomes): 15.1 mL/min/g
Time (Rattus norvegicus [13]): 194 min
Time (Rattus norvegicus [14]): 13.8 min
bioavailability [15]: 85%
Cmax [16]: 333 ng/mL
Time (Rattus norvegicus [17]): 26.6 min
fraction unbound at 1 h [18]: 0.0528
Activity (Rattus norvegicus [19]): Dose-dependent effect
Time (Rattus norvegicus [20]): 24.1 min
Time (Rattus norvegicus [21]): 182 min
Ki (Orexin receptor type 2 [22]): 1.29 nM
Time (Rattus norvegicus [23]): 17.7 min
Ki [24]: 0.759 nM
Time (Rattus norvegicus [25]): 8.3 min
Time (Rattus norvegicus [26]): 99.3 min
Time (Rattus norvegicus [27]): 117 min
Activity (Rattus norvegicus [28]): Dose-dependent effect
Vd [29]: 1.1 L/kg
Activity (Rattus norvegicus [30]): Dose-dependent effect
Time (Rattus norvegicus [31]): 165.2 min
Activity (Rattus norvegicus [32]): Dose-dependent effect
Time (Rattus norvegicus [33]): 11.6 min
Time (Rattus norvegicus [34]): 186.6 min
clearance [35]: 24 mL/min/kg
Activity (Rattus norvegicus [36]): Non-toxic
Activity (Rattus norvegicus [37]): Non-toxic
Activity (Rattus norvegicus [38]): Dose-dependent effect
Time (Rattus norvegicus [39]): 30.1 min

Cc1ccc(-c2nc3ccc(C)cn3c2CC(=O)N(C)C)cc1 [ZOLPIDEM]
Activity (Rattus norvegicus [36]): Toxic
Activity (Rattus norvegicus [37]): Toxic
